The test system of the assay is 1:1 (NHF:H35) microtissues. The conditions noted are these: cultured four hours, then overnight at 37° C. in 5 mM EDTA in PBS. On the procedure:
To determine if extracellular calcium disintegrated the microtissues, 1:1 (NHF: H35) microtissues were cultured for 4 hours. Culture media was removed, and microtissues were washed with PBS, and then incubated overnight at 37° C. in 5 mM EDTA in PBS. Control samples were kept in regular culture media or PBS.
To examine if enhanced power was transduced through cell-cell interactions 1:1 (NHF:H35) were cultured for four hours and then incubated in EDTA to destabilize the calcium dependent cell-cell adhesions. Control samples were kept in regular culture media or PBS.

Molecules are shown by their SMILES.

For `O=C(O)CN(CCN(CC(=O)O)CC(=O)O)CC(=O)O` [EDTA], the microtissue integrity result is reported as “disintegrated into monodispersed cells”.

The record behind these values is US9243278B2, “Mechanotransduction by the synergistic action of heterotypic cell interactions” (Brown University, priority 2011, dated 2016).
